Experiments:
[1] = system: CD3-stimulated T cells; test: CD3 stimulation of T cells: metabolite titration curves, 3[H]-thymidin incorporation; type: cell-based, human; conditions: anti-CD3 antibody, 3 days
Source text: • (a) Allogeneic T-cell response. DCs were infected with recombinant IDO-adeno-GFP (DC-IDO-GFP), IDO-adeno (DC-IDO) or with control adenoviruses (DC-adeno) at a MOI (multiplicity of infection) up to 500 for 2 days. Lymphocytes (PBMCs) were separated from peripheral blood of healthy donors by density gradient centrifugation and typed for HLA antigens. Only HLA-DR-different responder lymphocytes were used for DC-induced stimulation. Native DCs only, lymphocytes only, native DCs + allogeneic lymphocytes, DC-IDO-GFP + allogeneic lymphoytes, DC-IDO + allogeneic lymphoytes, DC-adeno + allogeneic lymphocytes (each time 10^5 DC + 10^5 lymphocytes in 0.2ml medium) were cultured in RPMI 1640 medium (Gibco BRL Life Technologies GmbH, Eggenstein, Germany) with 10% fetal calf serum (FCS) (final tryptophan concentration 5.25 mg/l = 25.69 uM) and Penicillin G/Streptomycin. […] In order to verify whether IDO expression or adenovirus infection harm the DCs, 10^5 cells were infected with IDO-adeno-GFP, IDO-adenovirus, or adenovirus only at a stepwise decreasing MOI (500, 250, 125, ........ 3.9) and cell viability was measured in FACS following double staining with 7-AAD and anti-CD83 antibody-PE. The percentage of dead cells never exceeded 30% for any MOI following IDO-adeno-GFP- or IDO-adeno-infection and 40% following adenovirus(control)-infection. Moreover, these values were not higher than those of native DCs cultured for the same period of time. The experiment was repeated using ethidium bromide or trypan blue staining with virtually the same result. […] Peripheral blood lymphocytes were cultured (10^5 cells/well) in RPMI 1640 (10% FCS) with anti CD3 monoclonal antibody (Ortho Diagnostic Systems Inc., Raritan, NJ) (final dilution 1:200). […] Kynurenine, 3-hydroxykynurenine, anthranilic acid, 3-hydroxyanthranilic acid, and quinolinic acid (Sigma-Aldrich Chemie GmbH, Taufkirchen, Germany)(for all substances purity>98%) were dissolved in RPMI 1640 and added to cell cultures at various concentrations. In an other experiment, to determine whether the metabolites have an additive effect, equal concentrations of the compounds were mixed and added to the cultures. […] Positive controls consisted of CD3-stimulated cells without metabolites and negative controls of unstimulated cells. • (d) Restimulation of suppressed T cells. Lymphocytes (10^5 cells/well) were cultured in RPMI 1640 (10% FCS) with anti-CD3 monoclonal antibody (final dilution 1:200) and kynurenine (dilution series). […] Controls consisted of cells prestimulated with anti-CD3 but not pretreated with kynurenine. In an other restimulation experiment lymphocytes were stimulated with allogeneic DCs as described, in the presence (47-1500µM) or absence of kynurenine. Control cultures contained DCs or lymphocytes only. After 5 days the cells were extensively washed, and restimulated with an identical number of DCs derived from the same donor or from third party donors. […] In order to define the concentration of tryptophan which reduces T- lymphocyte proliferation in our test system, 10^5 lymphocytes were incubated in tryptophan-free RPMI 1640 medium (Gibco BRL Life Technologies) with or without 10% FCS, stimulated with anti-CD3 monoclonal antibody, and various amounts (0-38µM) of tryptophan were added. Unimpaired proliferation was observed down to 0.30µM (medium with FCS) and 1 .20µM (without FCS). Complete inhibition was not obtained at any concentration (positive control 100% proliferation; maximal suppression in medium with FCS: approx. 66% and without FCS: approx. 33%). All cell cultures were done in triplicate.
All tests were carried out in triplicate and results are given as mean +standard deviation. […] Thereafter, the concentration of substance giving 50% proliferation was calculated by regression.

[2] = system: T cells; test: Detection of cell death: 7-AAD staining of anti-CD3 stimulated lymphocytes, FACScan; type: cell-based, human; conditions: anti-CD3, 3 days; 1501 µM kynurenine, 349µM 3-hydroxykynurenine, 510µM 3-hydroxyanthranilic acid, mixture 64 µM of each compound
Protocol: Lymphocytes were stimulated in culture with anti-CD3 monoclonal antibody (s. above) in the presence or absence (control) of kynurenine (1501µM), 3-hydroxyanthranilic acid (510µM), 3-hydroxykynurenine (348µM), or metabolite mixture (64µM kynurenine + 64µM 3-hydroxykynurenine + 64µM anthranilic acid + 64µM 3-hydroxyanthranilic acid + […] quinolinic acid). After 3 days the cells were washed and resuspended in PBS (10^6/ml). Thereafter, the cells (100µ1 suspension) were labeled with anti-CD3-FITC antibody (3 µl), stained with 7-AAD (5µl) for 15 min, and the percentage of 7-AAD-positive (dead) T cells was determined in a FACScan. In an other experiment T cells, B cells, NK-cells, or DCs were separated from PBMCs by magnetic beads or generated as described, and cultured (5x10^5 cells/ml) with a mixture of kynurenine metabolites (kynurenine + 3-hydroxykynurenine + anthranilic acid + 3-hydroxyanthranilic acid + quinolinic acid)(8, 16, or 32µM respectively for each compound). In one setting T cells were activated with anti-CD3 antibody. Cell death was measured daily for 5 days by 7-AAD staining and expressed in percentage of dead cells.

SMILES: Nc1ccccc1C(=O)CC(N)C(=O)O (stereo not drawn) [kynurenine]
- IC50 ([1]; Homo sapiens, T-cell, 72 h, single substance, read-out: I50 of proliferation of CD3-stimulated T cells): 553 µM
- suppression of T cell response (in words) [1]: suppressed proliferation
- dead (7-AAD-positive) T cells (in words) [2]: virtually all cells died
